Experimental data: patent US20240261443A1, “COMPOUNDS AND COMPOSITIONS USEFUL AS RADIOTRACERS FOR IMAGING OF REACTIVE OXIDATIVE SPECIES” (Wake Forest University Health Sciences, priority 2019, published 2024)

Tests used:
[1] = system: SCC-61 and PC3 cell lines; experiment: DCFDA intracellular ROS detection assay; type: cell-based, human
Description: For this, we used dichlorofluorescin diacetate (DCFDA) intracellular ROS detection assay kit and followed manufacture recommended protocol (ZHELEV et al., Docosahexaenoic Acid Sensitizes Leukemia Lymphocytes to Barasertib and Everolimus by ROS-dependent Mechanism Without Affecting the Level of ROS and Viability of Normal Lymphocytes. Anticancer Research 2016, 36 (4), 1673-1682). We studied two patient-derived tumor cell lines: SCC-61, […], and PC3, prostate cancer cell line. The maximum allowed mass for a typical clinical PET radiotracer is <100 μM (Schwarz et al., Radiochemistry and radiopharmacology. LIC-Nuclear Medicine and PET/CT: Technology and Techniques 2016, 11, 77), so we chose 10-100 μM as our concentration range for tracer-level assays. The lowest reported pharmacologic dose for ascorbate is 2.0 mM (Levine et al., Vitamin C: a concentration-function approach yields pharmacology and therapeutic discoveries. Adv Nutr 2011, 2 (2), 78-88), so we chose this dose for our pharmacological assays. We chose the ligand incubation times based on the maximum tracer uptake time (˜2 h) for a typical [^18F]-based PET radiotracer injection (Schlyer, PET tracers and radiochemistry. ANNALS-ACADEMY OF MEDICINE SINGAPORE 2004, 33 (2), 146-154).
Pharmacologic doses of ascorbate generates ROS, including H2O2 and trace amounts of labile iron extracellularly and/or intracellularly (Nauman et al., Systematic Review of Intravenous Ascorbate in Cancer Clinical Trials. Antioxidants (Basel) 2018, 7 (7), 89). We performed the same DCFDA assay with KS1 and ascorbate at pharmacological doses of 2 mM for 7 h in both SCC-61 and PC3 cell lines. ROS production was analyzed and reported (FIG. 11) using the similar measurements as above. Ligand specificity is commonly determined by pretreating the cells with high concentrations of blockers. We used superoxide dismutase (SOD), an enzyme that selectively suppresses accumulation of superoxide peroxide anions (Bielski et al., Chemistry of ascorbic acid radicals. in Ascorbic Acid: Chemistry, Metabolism, and Uses. Chapter 1982, 4, 81-100).

[2] = system: SCC-61 and rSCC-61 tumors; experiment: microPET/CT imaging in SCC-61 and rSCC-61 tumor-bearing mice; type: in vivo
Description: After evaluating the complete in vitro ROS uptake and stability profile of [^18F]KS1, we performed in vivo microPET/CT scans in tumor-bearing mice. To test our hypothesis of selective binding of [^18F]KS1 to image ROS in tumor tissue, we reported the baseline and blocking PET imaging data in a murine model of PCa (Solingapuram Sai et al., Initial biological evaluations of 18F-KS1, a novel ascorbate derivative to image oxidative stress in cancer. EJNMMI Research 2019, 9 (1), 43). Further, to test the differential ROS uptake of [^18F]KS1, microPET/CT imaging experiments were performed in both SCC-61 and rSCC-61 tumor-bearing mice (n=5, 25±2.5 g).

PC3 tumors = experiment: Standard biodistribution in PC3 tumor-bearing mice; type: in vivo
Method: Athymic nude mice (Taconic Farms) were housed in a pathogen-free facility of the Animal Research Program at Wake Forest School of Medicine under a 12:12-h light/dark cycle and fed ad libitum. All animal experiments were conducted under IACUC approved protocols in compliance with the guidelines for the care and use of research animals established by Wake Forest Medical School Animal Studies Committee. PC3 cells (1×10^5 cells suspended in 10 μL matrigel) were implanted in the left flank of nude mice (25-30 g) as described previously. Mice bearing subcutaneous human PCa PC3 tumors were separated into two groups for baseline and blockade studies (n=3/group) and underwent microPET imaging under ˜1% isoflurane-oxygen anesthesia (Reuter et al., Oxidative stress, inflammation, and cancer: How are they linked? Free radical biology & medicine. 2010; 49:1603-16. doi:10.1016/j.freeradbiomed; Sosa et al., Oxidative stress and cancer: An overview. Ageing Research Reviews. 2013; 12:376-90; Singh et al., Silibinin suppresses in vivo growth of human prostate carcinoma PC-3 tumor xenograft. Carcinogenesis. 2007; 28:2567-74). Mice were intravenously injected with ˜100±10 μCi of [^18F]KS1 and 45 min later were scanned for 20 min using a TriFoil microPET scanner. KS1 (15 mg/kg) was used as a blocking agent and was injected 45 min before the radiotracer injection. Standard biodistribution studies were conducted in mice bearing PCa tumors to confirm in vivo binding of [^18F]KS1. Mice were intravenously injected with [^18F]KS1 (˜100 μCi), and euthanized after 30 min and 60 min of tracer injections (3 mice/time point). Samples of tumor, blood, brain, heart, lung, liver, spleen, pancreas, kidney, muscle and bone were harvested, weighed, and gamma counted with a standard dilution of the injectate (Chu et al., Development of a PET Radiotracer for Noninvasive Imaging of the Reactive Oxygen Species, Superoxide, in vivo. Organic & biomolecular chemistry. 2014; 12:4421-31; Sai et al., Radiolabeling and initial biological evaluation of [(18)F]KBM-1 for imaging RAR-α receptors in neuroblastoma. Bioorganic & medicinal chemistry letters. 2017; 27:1425-7; Kumar et al., Radiosynthesis and in Vivo Evaluation of [11C]MPC-6827, the First Brain Penetrant Microtubule PET Ligand. Journal of Medicinal Chemistry. 2018; 61:2118-23). The percentage of the injected dose per gram of tissue (% ID/g) was calculated.

Row | Structure (SMILES) | ROS generation (DCFDA fluorescence) ([1]; 10 μM and 100 μM, SCC-61 and PC3) | fluorescence intensity (ROS generation) at pharmacological dose ([1]; 2 mM, 7 h, compared to 100 μM) | increased intensity subdued with SOD addition ([1]; 2 mM, SOD blocker) | tumor uptake in SCC-61 tumors versus rSCC-61 tumors ([2]; ROI analysis on PET scans) | residual uptake in other organs, including bladder and kidney ([2]; post 1-h radiotracer injection) | increased tumor uptake from 30 min to 60 min (PC3 tumors; 30 to 60 min post injection) | tumor: muscle (target: non-target) ratio (PC3 tumors; 30 min) | bone uptake (PC3 tumors; 30 min post injection) | tumor uptake (PC3 tumors; 30 min post injection) | tumor: muscle (target: non-target) ratio (PC3 tumors; 60 min) | bone uptake (PC3 tumors; 60 min post injection) | tumor uptake (PC3 tumors; 60 min post injection) | increase in the tumor: muscle ratio (PC3 tumors; from 30 min to 60 min)
1 | O=C1O/C(=C/CCl)C(O)=C1OCc1ccc(OCCF)cc1 [KS1, (E)-5-(2-chloroethylidene)-3-(4-(2-fluoroethoxy)benzyloxy)-4-hydroxyfuran-2(5H)-one] | did not generate ROS | increased significantly | ~3 fold |  |  |  |  |  |  |  |  |  | 
2 | O=C1O/C(=C/CCl)C(O)=C1OCc1ccc(OCC[18F])cc1 [[^18F]KS1] |  |  |  | ~1.2 fold | no residual uptake | ~1.7 fold | 4.31 | 1.741±0.71 % ID/g | 4.23±0.531 % ID/g | 8.84 | 1.381±0.561 % ID/g | 6.81±0.33 % ID/g | > 50%
